According to patent US8952033B2, “4-anilinofuro[2,3-b]quinoline derivatives, their preparation processes, and pharmaceutical compositions comprising the same” (Kaohsiung Medical University, priority 2011, dated 2015):
Marks after values point to notes of the source that are not given here.

Key:
[1] = test system: NCI-H460 (non-small cell lung carcinoma cell); test: MTT antiproliferative assay (cell growth %, GI50), NCI-H460; format: cell-based
Method in brief: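 Cells exposed to compounds in DMSO or vehicle for 48 hours; MTT (2 mg/mL) added before and after treatment for 2 hours, formazan dissolved in DMSO and OD570 read. GI50 from three determinations, reported as mean±SD.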

[2] = test system: SF-268 (central nervous system carcinoma cell); test: MTT antiproliferative assay (cell growth %, GI50), SF-268; format: cell-based
Method: (§1) Antiproliferative activities of the compounds of this invention were evaluated substantially according to the method as described in Tseng, C. […] The cells were treated with the test compounds, i.e., the compounds of this invention (in dimethylsulfoxide (DMSO)), or DMSO for 48 hours.
(§2) Before and after the treatment with the test compounds or DMSO, 3-(4,5-dimethylthiazol-2-yl)-2,5-diphenyltetrazolium bromide (MTT, 2 mg/mL, 100 μL) was added to each of the cultures, followed by cultivation for 2 hours. The resultant formazan was dissolved by the addition of DMSO. Absorbance at 570 nm (OD570) was measured using a microtiter plate reader (Dynex MRX-II).
(§3) Determination of GI50 was conducted thrice for each test compound. GI50 is expressed as mean±SD.

[3] = test system: MRC-5 (human lung fibroblast cell); test: GI50 determination on normal cell line MRC-5; format: cell-based; conditions: MRC5, normal cell line, mean±SD, read-out: GI50 MRC-5
Method: as §1, §2, §3

[4] = test system: RCC 786-O (renal cell carcinoma cell); test: Preferential antiproliferative activity, RCC 786-O; format: cell-based
Method: (§4) Determination of GI50 of compounds 13a, 13c, 14a, 14c, 15a, 16a was conducted substantially according to the method as described in the preceding section A entitled “Evaluation of antiproliferative activity”, except that the normal cell line MRC-5 was also utilized, and that camptothecin and daunorubicin were tested instead of compounds 1, 2, 3. The concentration of the respective test compound, which can reduce absorbance by 50% (compared with DMSO), is regarded as GI50, and can be determined via dose-response curves. Determination of GI50 was conducted thrice for each test compound. GI50 is expressed as mean±SD.
(§5) SI stands for selectivity index and was calculated by substituting GI50 into the following formula: D=E/F (2) where • D=SI • E=GI50 of the respective test compound for cells of the normal cell line • F=GI50 of the respective test compound for cells of the cancer cell line The experimental results are summarized in Table 4. […]

[5] = test system: SAS (human oral squamous-cell carcinoma cell); test: Preferential antiproliferative activity, SAS; format: cell-based
Method: as §4, §5

[6] = test system: CE81T (human esophageal carcinoma cell); test: Preferential antiproliferative activity, CE81T; format: cell-based
Method: as §4, §5

[7] = test system: A549 (human lung adenocarcinoma cell); test: Preferential antiproliferative activity, A549; format: cell-based
Method: as §4, §5

[8] = test system: NCI-H611; test: Preferential antiproliferative activity, NCI-H611; format: cell-based
Method: as §4, §5

[9] = Single-dose pharmacokinetic analysis in CD-1 mice; format: in vivo
Method: CD-1 mice were divided into two groups. The first group of mice (n=9) were used to assess the singe-dose pharmacokinetics of the test compounds after intravenous administration, and the second group of mice (n=9) were utilized to assess the singe-dose pharmacokinetics of the test compounds after oral administration. All of the mice were fasted from 4 hours before the administration of the test compounds until 4 hours after the administration of the test compounds.
The assessment for singe-dose pharmacokinetics of the test compounds after intravenous administration was performed as follows. The first group of mice were further randomly divided into three subgroups including compound 13a group (n=3), compound 14a group (n=3), and compound 1 group (n=3). Compounds 13a, 14a, 1 (in polyethylene glycol 400/ethanol/water (30/5/65, v/v/v)) were respectively administered to the mice in compound 13a group, compound 14a group, and compound 1 group at a dose of 2 mg/kg via tail vein injection. Blood samples (0.25 mL) were collected from the mice by virtue of cardiac puncture right before the intravenous administration, and at 2 min, 5 min, 15 min, 30 min, 1 hr, 1.5 hr, 2 hr, 4 hr, 6 hr, 9 hr, 24 hr, and 27 hr after the intravenous administration.
The assessment for singe-dose pharmacokinetics of the test compounds after oral administration was conducted as follows. The second group of mice were further randomly divided into three subgroups including compound 13a group (n=3), compound 14a group (n=3), and compound 1 group (n=3). Compounds 13a, 14a, 1 (in 0.5% methylcellulose) were respectively administered to the mice in compound 13a group, compound 14a group, and compound 1 group at a dose of 20 mg/kg via tube feeding. Blood samples (0.25 mL) were collected from the mice by virtue of cardiac puncture right before the oral administration, and at 15 min, 30 min, 1 hr, 1.5 hr, 2 hr, 4 hr, 6 hr, 9 hr, 24 hr, and 27 hr after the oral administration.
Each of the blood samples was placed in a 0.5 mL Microtainer® tube containing anticoagulant EDTA-K2, followed by mixing evenly. Centrifugation at 7000 g and 4° C. was conducted for 5 minutes. Plasma was collected and was mixed uniformly with a proper amount of acetonitrile, followed by centrifugation. The resultant supernatant was acquired, and was injected into a reversed-phase Biosil ODS column so as to determine the concentration of the respective test compound in plasma (i.e., the plasma concentration of the respective test compound) using a LC-MS/MS system (Waters 2795 LC and Micromass Quattro Ultima). The singe-dose pharmacokinetic parameters of the respective test compound were calculated from the obtained concentration of the respective test compound in plasma (i.e., the obtained plasma concentration of the respective compound) at different time points using WinNonlin Standard Program (version 3.1, Pharsight Corp.)

[10] = intravenous administration, 2 mg/kg

With `C/C(=N\OCCN)c1ccc(Nc2c3ccccc3nc3occc23)cc1` [Compound 13a, (E)-1-(4-(furo[2,3-b]quinolin-4-ylamino)phenyl)ethanone O-2-aminoethyl oxime] the “SI NCI-H460” value ([1]; GI50 MRC-5 / GI50 NCI-H460) was 68.02, the activity at 4000 µg/mL ([1]; Homo sapiens, NCI-H460, 4 mg/ml, 48 hours, MTT) was 33% and the activity at 20000 µg/mL ([1]; Homo sapiens, NCI-H460, 20 mg/ml, 48 hours, MTT) was -1%. The GI50 ([1]; Homo sapiens, NCI-H460, mean±SD, read-out: GI50 NCI-H460) was 0.63 ± 0.03 µM, the “SI SF-268” value ([2]; GI50 MRC-5 / GI50 SF-268) was 6.84 and the GI50 ([2]; Homo sapiens, SF-268, mean±SD, read-out: GI50 SF-268) was 6.26 ± 1.02 µM. The GI50 [3] was 42.9 ± 1.05 µM, the GI50 ([4]; Homo sapiens, 786-0, mean±SD) was 24 ± 2 µM and the “SI RCC 786-O” value ([4]; versus MRC-5) was 1.77. The GI50 ([5]; Homo sapiens, mean±SD) was 15.5 ± 2.6 µM, the “SI SAS” value ([5]; versus MRC-5) was 2.76 and the GI50 ([6]; Homo sapiens, CE81T, mean±SD) was 16.9 ± 1.88 µM. For the same compound, the “SI CE81T” value ([6]; versus MRC-5) was 2.53, the GI50 ([7]; Homo sapiens, A549, mean±SD) was 6.58 ± 2.99 µM and the “SI A549” value ([7]; versus MRC-5) was 6.51. For the same compound, the GI50 ([8]; mean±SD) was 0.98 ± 0.27 µM, the “SI NCI-H611” value ([8]; versus MRC-5) was 43.72 and the “AUC(0-inf)” value [9, 10] was 362.6 ng·h/mL. It also gave a CL [9, 10] of 91.9 mL/min/kg, an MRT [9, 10] of 2.5 h and a Vss [9, 10] of 13.5 L/kg. For the same compound, the Vz [9, 10] was 38.8 L/kg, the Cmax ([9]; intravenous administration, 2 mg/kg, extrapolated plasma concentration at 0 hr) was 1488.4 ng/mL and the t1/2 ([9]; intravenous administration, 2 mg/kg, from 0.5-1.5 hr (compd. 1) or 9-27 hr (13a, 14a)) was 4.9^d hr. For the same compound, the Bioavailability ([9]; oral 20 mg/kg versus intravenous 2 mg/kg) was 57.1%, the “AUC(0-inf)” value ([9]; oral administration, 20 mg/kg) was 2071.6 ng·h/mL and the Cmax ([9]; oral administration, 20 mg/kg) was 1905.0 ng/mL. For the same compound, the MRT ([9]; oral administration, 20 mg/kg) was 3.0 h, the Tmax ([9]; oral administration, 20 mg/kg) was 0.5 h and the t1/2 ([9]; oral administration, 20 mg/kg, from 2-6 hr (compd. 1), 2-24 hr (13a), 2-9 hr (14a)) was 3.4 h.
